Source: EP0618207B1, “Substituted pyridopyrimidines as antihypertensives” (AMERICAN HOME PRODUCTS CORPORATION, priority 1993, dated 1994)

How the values were obtained:
A II-infused rat model = assay: A II-infused rat model, antihypertensive action; format: in vivo, Rats; settings: 3 mg/kg id, four hours post-administration
Procedure: In accordance with their ability to antagonize angiotensin II, the compounds of this invention show antihypertensive action in the following A II-infused rat model. Rats are anesthetized with Dial-Urethane (0.60 mL/kg, ip) and the trachea cannulated with PE 240. Either one femoral artery and both femoral veins or the carotid artery and the corresponding jugular vein are cannulated with PE 50. If the jugular vein is cannulated, two cannulas are placed in the one vein. The initial portion of the duodenum (just distal to the stomach) is cannulated with PE 50 via a small midline incision. Arterial pressure and heart rate are measured from the arterial cannula. Ten to 15 min are allowed following surgery for stabilization of arterial pressure. Ganglion blockade is then produced by intravenous administration of mecamylamine at 3 mg/kg (1 mL/kg of a 3 mg/mL solution). Ganglion blockade causes a fall in arterial pressure of about 50 mmHg. Mecamylamine is given every 90 min throughout the remainder of the experiment. An A II infusion is then begun into the other venous cannula at 0.25 µg/kg/min (at 9.6 µL/min). The A II infusion returns arterial pressure to or slightly above the control level. Once arterial pressure has stabilized with the A II infusion, baseline values for mean arterial pressure (MAP) and heart rate are taken. […]

[1] = system: Goldblatt (2K-1C) hypertensive rat model; assay: Goldblatt (2K-1C) hypertensive rat model, antihypertensive action; format: in vivo, Sprague-Dawley rats
Procedure: In further accordance with their ability to antagonize angiotensin II, the compounds of this invention show antihypertensive action in the following Goldblatt (2K-1C) hypertensive rat model. Sprague-Dawley rats weighing 150 g were anesthetized with pentobarbital (50 mg/kg ip) and the left renal artery was clipped with a silver wire bent to an internal diameter of 0.2 mm. The hypertension was established 4-7 weeks after clipping. At that time, the animals were anesthetized with pentobarbital (50 mg/kg ip) and the right carotid artery was cannulated. The catheter was passed subcutaneously to the dorsal side of the neck and exteriorized. The animals were fasted overnight but allowed access to water and the experiment was performed the next morning. The carotid catheter was connected to a blood pressure transducer which was linked to a MI^2 computer data acquisition system or to a Grass or Beckman recorder for the recording of mean arterial pressure (MAP) and heart rate. For oral administration, the rats were given either a compound of the invention (1, 3 or 10 mg/kg), losartan (30 mg/kg) as a standard or vehicle (0.5% methyl cellulose in distilled water) by gastric gavage (ig) in a volume of 5 mL/kg. For intravenous administration, the rats were given either a compound of the invention (0.03, 0.1, 1, 3 or 10 mg/kg) or vehicle (≦50% NaHCO3 in distilled water) in a volume of 1 mL/kg. In all experiments, saline was infused into the arterial cannula at 5 µL/min throughout the experiment to maintain patency of the cannula. Each compound was administered to a separate group of 6-12 rats and MAP and heart rate were recorded for 24 h. […] At each time point following dosing, averages were determined for absolute MAP, change in MAP (in mm Hg), and heart rate for all animals, and the standard error of the mean was calculated.

[2] = metabolic studies in rats; format: in vivo

Compound | lowered the A II dependent blood pressure by an average of (A II-infused rat model) [%] | maximum decrease in MAP ([1]; 0.1 mg/kg iv, 4 hours post-administration) [mm Hg] | maximum decrease in MAP ([1]; 10 mg/kg ig, 23 hours post-administration) [mm Hg] | identified as metabolite of the compound of Example 3 of U.S. Patent No. 5,149,599 [2] | presence of metabolite (duration and amount), Example 4 compared with Example 6 [2] | maximum decrease in MAP ([1]; 10 mg/kg ig, 9 hours post-administration) [mm Hg]
Cc1nc(CO)nc2c1CCC(=O)N2Cc1ccc(-c2ccccc2-c2nnn[nH]2)cc1 [Example 2, 2-Hydroxymethyl-4-methyl-8-[2'-(1H-tetrazol-5-yl)biphenyl-4-ylmethyl]-5,8-dihydro-6H-pyrido[2,3-d]pyrimidin-7-one] | 30 | – | – | – | – | –
Cc1nc(C)c2c(O)cc(=O)n(Cc3ccc(-c4ccccc4-c4nnn[nH]4)cc3)c2n1 [Example 4, 2,4-Dimethyl-5-hydroxy-8-[2'-(1H-tetrazol-5-yl)biphenyl-4-ylmethyl]-8H-pyrido[2,3-d]pyrimidin-7-one Sesquihydrate] | – | 67 | 66 | significant metabolites | present significantly longer and in greater amounts than the latter | –
Cc1nc(C)c2c(n1)N(Cc1ccc(-c3ccccc3-c3nn[nH]n3)cc1)C(=O)CC2O (stereo not shown) [Example 6, 5-Hydroxy-2,4-dimethyl-8-[2'-(1H-tetrazol-5-yl)-biphenyl-4-ylmethyl]-6,8-dihydro-5H-pyrido[2,3-d]pyrimidine-7-one Hydrate 0.4 Etherate] | – | – | – | significant metabolites | – | 71
